We go through two compounds from patent US20250042880A1 (UNIVERSITY OF KENTUCKY RESEARCH FOUNDATION, priority 2021, published 2025).

The target of one assay is T1, GLUT1 (Homo sapiens, UniProt P11166).
T1 sequence (P11166 1-492): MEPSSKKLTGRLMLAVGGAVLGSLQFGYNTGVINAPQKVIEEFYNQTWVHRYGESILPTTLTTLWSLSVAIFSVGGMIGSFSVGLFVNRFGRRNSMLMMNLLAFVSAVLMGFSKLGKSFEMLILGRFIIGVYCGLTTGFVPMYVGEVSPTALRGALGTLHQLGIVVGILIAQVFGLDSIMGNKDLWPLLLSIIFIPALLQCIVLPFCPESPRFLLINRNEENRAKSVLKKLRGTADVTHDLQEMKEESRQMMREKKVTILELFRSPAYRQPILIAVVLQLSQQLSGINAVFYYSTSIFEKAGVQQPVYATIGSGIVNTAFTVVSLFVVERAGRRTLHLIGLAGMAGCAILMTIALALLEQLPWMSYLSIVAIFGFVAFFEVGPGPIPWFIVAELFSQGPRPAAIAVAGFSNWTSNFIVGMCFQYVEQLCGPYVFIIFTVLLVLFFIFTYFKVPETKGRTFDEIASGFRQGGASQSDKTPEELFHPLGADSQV
As to conditions: cited from earlier work.

The next assay has as its system Pt2377 cells. The assay can be described thus: Cell proliferation inhibition assay, Pt2377. The assay is classed as cell-based. The protocol: Cell proliferation inhibition assay-Cell proliferation inhibition assay was performed as previously reported (48). All compounds to be tested were dissolved at 10 mM in DMSO. The cells were seeded into 12-well plates at a density of 40,000 cells per well in 1 mL of culture medium and were cultured overnight at 37° C. Either 1 μL of the compounds or the vehicle control (DMSO) was added to the cells. After 5 days, the medium was removed, and 200 μL of 0.25% trypsin was added. The cells were resuspended in 800 μL phosphate-buffered saline (PBS) and counted with Vi-CELL XR 2.03 (Beckman Coulter, Inc. USA). The ratio R of the number of viable cells in the compound-treated group to the number of viable cells in the DMSO-treated group was called relative growth rate, and the growth inhibition was calculated as (1−R)*100.

For the next assay, the system named is LS174T cells. The experiment in a line: Seahorse oxygen consumption rate assay. The assay is classed as cell-based. As to conditions: rotenone/antimycin A replaced with compound. The protocol: Seahorse oxygen consumption rate assay-Seahorse assays were conducted in accordance with a published protocol (50). Mitochondrial bioenergetic measurements were performed using the Seahorse XFe96 Extracellular Flow Analyzer (Agilent Technologies, Santa Clara, CA, USA) to measure the oxygen consumption rate (OCR) in different respiratory states. 2.5×10^4 LS174T cells in 80 μL medium were seeded in XF96 Cell Culture microplate and cultured overnight. Then cell culture media were replaced with Seahorse XF modified media before cells were treated. […] To test whether compounds were ETC complex I or III inhibitors, rotenone and antimycin A were replaced with DMSO, or compounds in DMSO solution.
The Seahorse assays were performed in compliance with a pre-announced procedure (41). Oxygen consumption was measured using the Seahorse XFe96 Extracellular Flow Analyzer (Agilent Technologies, Santa Clara, CA, USA). 2.5×10^4 LS174T cells were seeded in XF96 Cell Culture microplate in 80 μL culture medium and incubated overnight. On the following day, the cell culture media were exchanged with Seahorse XF modified media. 1.0 μmol/L oligomycin, 1.0 μmol/L FCCP, and a mixture of 1.0 μmol/L rotenone and 1.0 μmol/L antimycin A were sequentially added during the measurements. […]

Regarding `Cc1c(NC(=O)c2cc(C(N)=O)nc3cc(F)ccc23)c(C(F)(F)F)nn1Cc1ccc(C#N)cc1` [BAY-876, N^4-[1-(4-cyanobenzyl)-5-methyl-3-(trifluoromethyl)-1H-pyrazol-4-yl]-7-fluoroquinoline-2,4-dicarboxamide], at GLUT1, the “potency for the GLUT1 transporter” value was “single-digit, nanomolar”; the “selectivity factor for GLUT1 in comparison with GLUT2, GLUT3 and GLUT4” value was over 100. Besides, the “inhibition of proliferation of Pt2377 cells” value in the assay on Pt2377 cells was “inhibited the proliferation of these cell lines at nanomolar concentrations”.
`O=c1c(-c2ccc(Cl)c(Cl)c2)coc2cc(OCCN3CCN(CCO)CC3)ccc12` [DBI-6, 3-(3,4-dichlorophenyl)-7-(2-(4-(2-hydroxyethyl)piperazin-1-yl)ethoxy)-4H-chromen-4-one]: in the assay on LS174T cells, the “oxygen consumption rate (OCR)” value is “suppressed OCR in a similar manner to rotenone/antimycin A”.
